Target: T1, angiotensin converting enzyme (Rattus norvegicus, UniProt P47820)
T1 construct: from tissue; host or cells: rat blood plasma (ex vivo, after oral dosing)
T1 sequence (P47820 36-1238 limits assumed): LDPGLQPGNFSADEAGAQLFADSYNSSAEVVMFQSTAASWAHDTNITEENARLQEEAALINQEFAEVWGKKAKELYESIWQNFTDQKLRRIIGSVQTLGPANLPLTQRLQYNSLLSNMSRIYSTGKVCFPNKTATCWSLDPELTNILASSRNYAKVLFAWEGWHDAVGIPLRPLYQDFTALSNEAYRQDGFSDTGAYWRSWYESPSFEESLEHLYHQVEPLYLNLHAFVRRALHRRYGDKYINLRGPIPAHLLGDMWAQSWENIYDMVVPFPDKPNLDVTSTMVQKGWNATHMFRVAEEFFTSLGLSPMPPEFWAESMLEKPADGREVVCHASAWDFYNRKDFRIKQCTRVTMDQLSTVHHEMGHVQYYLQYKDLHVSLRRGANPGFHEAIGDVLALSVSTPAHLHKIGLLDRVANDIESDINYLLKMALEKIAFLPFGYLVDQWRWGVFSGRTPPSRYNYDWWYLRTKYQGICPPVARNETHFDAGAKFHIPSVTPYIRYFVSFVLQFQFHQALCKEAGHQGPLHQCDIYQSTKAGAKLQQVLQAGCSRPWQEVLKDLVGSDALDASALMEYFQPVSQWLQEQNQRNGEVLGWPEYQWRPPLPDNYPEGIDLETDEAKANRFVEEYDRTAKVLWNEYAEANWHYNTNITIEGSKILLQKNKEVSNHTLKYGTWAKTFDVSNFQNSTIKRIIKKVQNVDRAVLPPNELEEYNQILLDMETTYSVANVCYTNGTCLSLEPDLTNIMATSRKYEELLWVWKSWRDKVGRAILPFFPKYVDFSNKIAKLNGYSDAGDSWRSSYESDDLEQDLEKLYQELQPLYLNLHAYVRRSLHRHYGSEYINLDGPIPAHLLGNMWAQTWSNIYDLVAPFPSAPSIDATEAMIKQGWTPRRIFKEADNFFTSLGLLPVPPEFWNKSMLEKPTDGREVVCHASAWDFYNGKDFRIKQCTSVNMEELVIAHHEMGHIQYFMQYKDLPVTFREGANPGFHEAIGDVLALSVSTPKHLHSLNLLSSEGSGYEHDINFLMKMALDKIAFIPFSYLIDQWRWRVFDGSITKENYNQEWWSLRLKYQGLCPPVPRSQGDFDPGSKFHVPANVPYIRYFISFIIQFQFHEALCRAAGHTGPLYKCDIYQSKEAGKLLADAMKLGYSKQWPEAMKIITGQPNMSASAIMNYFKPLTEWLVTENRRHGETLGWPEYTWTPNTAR
Test: inhibition of angiotensin converting enzyme ex vivo in rats (plasma before and 2 hours after oral administration, 14C-hippuryl-histidylleucine substrate)
Settings: for angiotensin converting enzyme is inhibited in doses smaller than the captopril dose: compared with captopril dose; for ED50: rat, plasma 2 hours after administration, read-out: ED 50% (dose which produces 50% inhibition of angiotensin converting enzyme); for relative activity: relative to captopril = 1.00, from ED 50%
Experimental: The following method was used in investigating the pharmacodynamic effect (inhibition of angiotensin converting enzyme ex vivo in rats):
Before, and 2 hours after, oral administration of the substance, blood was withdrawn from the animals, and the plasma was diluted 1:6 with H2 O. The diluted plasma (100 μl) was incubated with 50 μl of ^14 C-hippuryl-histidylleucine solution (K phosphate 260 mM, NaCl 938 mM, pH=8.3) for 1 hour at 37° C. The reaction was terminated by adding 2 ml of 0.1N HCl, and the product, ^14 C-hippuric acid, was extracted with toluene scintillator (PPO+POPOP+toluene+21% of isoamyl alcohol) and determined using a scintillation counter for liquids. After subtraction of the blank value (incubation time=0 minute), the percentage inhibition was determined from the enzymatic activities in the plasma before and after administration of the substance. The ED 50%, ie. the dose which produces 50% inhibition, is calculated from the individual inhibitory values by linear regression following logit-log transformation.

| angiotensin converting enzyme is inhibited in doses smaller than the captopril dose [times smaller] | ED50 [mg/kg] | relative activity | Structure (SMILES) |
| --- | --- | --- | --- |
| 5 | 0.2 | 5.0 | O=C(SC[C@H](SC(=O)c1ccccc1)C(=O)N[C@@H](Cc1c[nH]c2ccccc12)C(=O)O)c1ccccc1 [Example 68, N-[(R)-2,3-Bis-(benzoylthio)-propionyl]-tryptophan] |
| 5 | 0.2 | 5.0 | C[C@H](NC(=O)[C@H](CSC(=O)c1ccccc1)SC(=O)c1ccccc1)C(=O)N1CCC[C@H]1C(=O)O [Example 70, N-[(R)-2,3-Bis-(benzoylthio)-propionyl]-alanylproline] |

Source: patent US4500467A, “Benzoylthio compounds, their preparation and their use as drugs” (BASF Aktiengesellscaft, priority 1982, dated 1985)
